Assay results taken from the supplement of paper PMC10307832.

Columns and labels:
Test in all cases: relative viability (nuclei count vs DMSO), 5 days (fraction); higher = more cells survive
[1] = compound: C1/C(=C\C2=CC=CS2)/C(=O)/C(=C/C3=CC=CS3)/C1 + N=C(N)NC(=N)NCCc1ccccc1 [Phenformin] (partner 250 µM)
Outline: (§1)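 Lung cancer cell lines in 1536-well plates were dosed by pin tool the day after seeding, either with one drug alone or with a fixed anchor-drug dose plus five library-drug doses (not always all listed) in √10 steps. After 5 days, cells were fixed and their nuclei stained in one step (final 0.05% Triton X-100, 1% formaldehyde, 1 ug/ml Hoechst), then counted on 4× images. Relative viability is the nuclei count in treated wells divided by that in vehicle wells. Values are medians of duplicate plates.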

TPCA-1 + Lapatinib = compound: C1=CC(=CC=C1C2=CC(=C(S2)NC(=O)N)C(=O)N)F [TPCA-1] + CS(=O)(=O)CCNCc1ccc(-c2ccc3ncnc(Nc4ccc(OCc5cccc(F)c5)c(Cl)c4)c3c2)o1 [Lapatinib] (partner 2 µM)
Outline: as §1

[2] = compound: C[C@]12O[C@H](C[C@]1(O)CO)n1c3ccccc3c3c4c(c5c6ccccc6n2c5c31)CNC4=O [Lestaurtinib] + N=C(N)NC(=N)NCCc1ccccc1 [Phenformin] (partner 250 µM)
Outline: as §1

Lestaurtinib + Olaparib = compound: C[C@]12O[C@H](C[C@]1(O)CO)n1c3ccccc3c3c4c(c5c6ccccc6n2c5c31)CNC4=O [Lestaurtinib] + O=C(c1cc(Cc2n[nH]c(=O)c3ccccc23)ccc1F)N1CCN(C(=O)C2CC2)CC1 [Olaparib] (partner 8 µM)
Outline: as §1

Cell Line | relative viability ([1]; first compound 0.2 µM) | relative viability ([1]; first compound 0.6325 µM) | relative viability ([1]; first compound 2 µM) | relative viability ([1]; first compound 6.325 µM) | relative viability ([1]; first compound 20 µM) | relative viability (TPCA-1 + Lapatinib; first compound 0.04 µM) | relative viability (TPCA-1 + Lapatinib; first compound 0.1265 µM) | relative viability (TPCA-1 + Lapatinib; first compound 0.4 µM) | relative viability (TPCA-1 + Lapatinib; first compound 1.265 µM) | relative viability (TPCA-1 + Lapatinib; first compound 4 µM) | relative viability ([2]; first compound 0.005 µM) | relative viability ([2]; first compound 0.01581 µM) | relative viability ([2]; first compound 0.05 µM) | relative viability ([2]; first compound 0.1581 µM) | relative viability ([2]; first compound 0.5 µM) | relative viability (Lestaurtinib + Olaparib; first compound 0.005 µM) | relative viability (Lestaurtinib + Olaparib; first compound 0.01581 µM) | relative viability (Lestaurtinib + Olaparib; first compound 0.05 µM) | relative viability (Lestaurtinib + Olaparib; first compound 0.1581 µM) | relative viability (Lestaurtinib + Olaparib; first compound 0.5 µM)
NCI-H1355 | 0.512 | 0.492 | 0.465 | 0.397 | 0.434 | 1.15 | 0.879 | 0.956 | 0.818 | 0.719 | 0.455 | 0.465 | 0.374 | 0.391 | 0.263 | 0.804 | 0.754 | 0.563 | 0.566 | 0.369
NCI-H1395 | 0.448 | 0.484 | 0.505 | 0.483 | 0.465 | 1.09 | 1.06 | 1.02 | 0.935 | 0.75 | 0.451 | 0.432 | 0.422 | 0.484 | 0.312 | 0.498 | 0.494 | 0.426 | 0.406 | 0.369
NCI-H1437 | 0.294 | 0.281 | 0.402 | 0.26 | 0.318 | 0.888 | 0.764 | 0.85 | 0.742 | 0.604 | 0.343 | 0.349 | 0.241 | 0.292 | 0.16 | 0.671 | 0.662 | 0.571 | 0.67 | 0.553
NCI-H1650 | 0.495 | 0.434 | 0.426 | 0.391 | 0.467 | 0.945 | 0.713 | 0.921 | 0.791 | 0.219 | 0.419 | 0.511 | 0.424 | 0.373 | 0.151 | 0.596 | 0.79 | 0.787 | 1.22 | 0.631
NCI-H1651 | 0.352 | 0.372 | 0.446 | 0.26 | 0.323 | 1.02 | 0.746 | 0.951 | 0.848 | 0.8 | 0.326 | 0.429 | 0.295 | 0.329 | 0.184 | 0.166 | 0.199 | 0.17 | 0.169 | 0.147
NCI-H1666 | 0.55 | 0.596 | 0.589 | 0.522 | 0.584 | 0.539 | 0.569 | 0.865 | 0.707 | 0.631 | 0.613 | 0.617 | 0.668 | 0.561 | 0.389 | 0.779 | 0.799 | 0.871 | 0.976 | 0.827
NCI-H1734 | 0.415 | 0.403 | 0.443 | 0.363 | 0.412 | 1.21 | 0.946 | 1.13 | 1.02 | 0.623 | 0.385 | 0.391 | 0.255 | 0.208 | 0.18 | 0.647 | 0.626 | 0.578 | 0.533 | 0.271
NCI-H1755 | 0.636 | 0.642 | 0.63 | 0.505 | 0.61 | 0.991 | 0.984 | 1.02 | 0.898 | 0.689 | 0.663 | 0.648 | 0.462 | 0.336 | 0.287 | 0.953 | 0.944 | 0.753 | 0.628 | 0.373
NCI-H1792 | 0.514 | 0.273 | 0.67 | 0.287 | 0.322 | 0.964 | 0.893 | 0.843 | 0.9 | 0.455 | – | 0.423 | 0.3 | 0.179 | 0.178 | 0.593 | 0.495 | 0.434 | 0.267 | 0.164
NCI-H1793 | 0.375 | 0.351 | 0.515 | 0.337 | 0.355 | 1.05 | 0.669 | 0.837 | 0.929 | 0.354 | 0.353 | 0.447 | 0.296 | 0.436 | 0.3 | 0.97 | 1.05 | 0.549 | 0.848 | 0.482
NCI-H1915 | 0.365 | 0.378 | 0.362 | 0.205 | 0.37 | 1.06 | 0.984 | 1.03 | 0.875 | 0.813 | 0.349 | 0.37 | 0.311 | 0.34 | 0.204 | 0.259 | 0.285 | 0.273 | 0.296 | 0.143
NCI-H1944 | 0.232 | 0.207 | 0.2 | 0.18 | 0.182 | 0.999 | 0.68 | 0.838 | 0.7 | 0.682 | 0.194 | 0.209 | 0.164 | 0.133 | 0.132 | 0.437 | 0.479 | 0.34 | 0.419 | 0.344
NCI-H1975 | 0.399 | 0.388 | – | 0.37 | 0.411 | 0.941 | 0.75 | 0.906 | 0.714 | 0.494 | 0.464 | 0.44 | 0.363 | 0.353 | 0.275 | 0.802 | 0.856 | 0.651 | 0.757 | 0.408
NCI-H1993 | 0.514 | 0.518 | 0.494 | 0.42 | 0.517 | 0.855 | – | 0.735 | 0.765 | 1.11 | 0.559 | 0.547 | 0.527 | 0.457 | 0.486 | 0.76 | 1.16 | 1.14 | 1.04 | 0.463
NCI-H2009 | 0.511 | 0.52 | 0.493 | 0.453 | 0.426 | 1.12 | 0.886 | 0.926 | 0.444 | 0.294 | 0.51 | 0.46 | 0.437 | 0.465 | 0.235 | 0.589 | 0.754 | 0.577 | 0.843 | 0.473
